Data reported in patent publication US4346078A, “Novel anticoagulant agmatine derivatives and process for the preparation thereof” (Richter Gedeon Vegyeszeti Gyar Rt., priority 1980, dated 1982).
Each block holds one molecule with its values, some of them ahead of it. Where a SMILES comes first, the peptide text is derived from it. [ ]: non-standard residue; d: D form. The star is where a group is joined. dPhg = N[C@@H](C(=O)O)c1ccccc1; Agmatine = N=C(N)NCCCCN*; Bn = c1ccc(C*)cc1

What was measured:
[1] = target: T1, Human Thrombin (Homo sapiens, UniProt P00734); experiment: Fibrinogen-thrombin reaction: amount required to double the thrombin time of fibrinogen; format: biochemical; details: for Amount of agmatine derivative required to double the thrombin-time of fibrinogen: bovine fibrinogen, human thrombin 5 NIH Unit/ml, pH 7.4, thrombin time without derivative 15 seconds; for relative activity: related to tosyl-agmatine, taken as unity
T1 construct: 0.1 ml US Standard Human Thrombin 5 NIH Unit/ml
Excerpt: It is known that the simple acyl derivatives of agmatine (1-amino-4-guanidino-butane), as for instance tosyl-agmatine (1-[p-toluene-sulfonylamido]-4-guanidino-butane), have the ability to inhibit the proteolytic reactions of both tripsin and thrombin (Lorand and Rule: Nature, 190, 722, 1961; Rule and Lorand: Biochim. Biophys. Acta, 81, 130, 1964). According to these authors tosyl-agmatine delays the clotting of blood plasma, and also is assumed to suppress the fibrinogen-thrombin reaction. In our own experiments, however, the fibrinogen-thrombin reaction was affected by tosyl-agmatine to a negligible degree: 0.7 mg of tosyl-agmatine is required to double (from 15 sec to 30 sec) the thrombin time of 1 ml of a solution containing 1.25 mg of fibrinogen and 1.25 NIH units of thrombin ("Minimum Requirements of Dried Thrombin", 2nd rev. Div. Biol. Conf. Natl. Inst. Health, Bethesda, Md., United States 1946).
The potency of the substances is defined by the amount of the compound required to double the thrombin time of fibrinogen. Furthermore, the relative potency of the novel agmatine derivatives related to tosyl-agmatine (the activity of the last-mentioned drug is taken as unity) is listed, too.
The potency of the compounds was assayed in the following system:
0.2 ml of 0.5 percent bovine fibrinogen in 0.9 percent NaCl solution,
0.1 ml of tris-(hydroxymethyl)-methylamine hydrochloride buffer solution (pH=7.4) containing the agmatine derivative, and
0.1 ml US Standard Human Thrombin 5 NIH Unit/ml.
The thrombin time of the system devoid of agmatine derivative is 15 seconds.

[2] = target: T1, Human Thrombin; experiment: Relative thrombin-time in isolated fibrinogen-thrombin reaction mixture A; format: biochemical; details: system A, without inhibitor = 1
Method: (§1) In in vitro trials the effect of D-Phe-Pro-Agm.2HCl (in formula I, X is a D-phenylalanine moiety, B is chloride ion and n=2) and heparin was studied in an isolated system, in a fibrinogen-thrombin reaction mixture A and in human citrate plasma B:
0.2 ml of 0.5 percent bovine fibrinogen in 0.9 percent saline solution,
0.1 ml US Standard Human Thrombin 10 NIH Unit/ml.

[3] = target: T1, Human Thrombin; experiment: Relative thrombin-time in human citrate plasma B; format: biochemical; details: system B human citrate plasma, without inhibitor = 1
Method: as §1
0.2 ml of human citrate plasma
0.1 ml US Standard Human Thrombin 10 NIH U/ml.

[4] = tested on: gray rabbits; experiment: In vivo prothrombin activity of the blood assayed according to Quick; parameters: species or system rabbit
Method: In in vivo trials gray rabbits (2 to 3 kg) were administered subcutaneously:
b. 10 mg/kg D-Phe-Pro-Agm.2HCl, or
c. 5 mg/kg heparin and 10 mg/kg D-Phe-Pro-Agm.2HCl.

[5] = D-Phe-Pro-Agm.2HCl 0.10 μg/ml reaction mixture
[6] = heparin 0.05 μg/ml reaction mixture
[7] = heparin 0.10 μg/ml reaction mixture
[8] = heparin 0.20 μg/ml reaction mixture

anticoagulant potency (in words) [1]: extremely high activity | Amount of agmatine derivative required to double the thrombin-time of fibrinogen [1]: 0.12 μ/reaction mixture | relative activity [1]: 2333 | Relative thrombin-time, alone [2, 5]: 2.5 | Relative thrombin-time, alone ([2]; D-Phe-Pro-Agm.2HCl 0.20 μg/ml reaction mixture): 4.0 | Relative thrombin-time, alone ([3]; D-Phe-Pro-Agm.2HCl 0.05 μg/ml reaction mixture): 2.2 | Relative thrombin-time, alone [3, 5]: 3.4
Molecule: ClOCl.N=C(N)NCCCCNC(=O)[C@@H]1CCCN1C(=O)[C@H](N)Cc1ccccc1 [H--D--Phe--Pro--Agm, D-Phenylalanyl-L-prolyl-agmatine-dichlorohydrate] (H-[dF]-Pro-Agmatine)
prothrombin activity of the blood ([4]; 10 mg/kg D-Phe-Pro-Agm.2HCl subcutaneously): practically unaltered

Molecule: ClOCl.N=C(N)NCCCCNC(=O)[C@@H]1CCCN1C(=O)[C@H](N)c1ccccc1 [H--D--Phg--Pro--Agm, D-Phenylglycyl-L-prolyl-agmatine-dichlorohydrate] (H-[dPhg]-Pro-Agmatine)
Amount of agmatine derivative required to double the thrombin-time of fibrinogen [1]: 1.4 μ/reaction mixture | relative activity [1]: 200

Molecule: ClOCl.N=C(N)NCCCCNC(=O)[C@@H]1CCCN1C(=O)[C@H](N)COCc1ccccc1 [H--D--Ser(Bzl)--Pro--Agm, O-Benzyl-D-seryl-L-prolyl-agmatine-dichlorohydrate] (H-[dS](Bn)-Pro-Agmatine)
Amount of agmatine derivative required to double the thrombin-time of fibrinogen [1]: 0.7 μ/reaction mixture | relative activity [1]: 400

Molecule: Cc1ccc(S(=O)(=O)NCCCCNC(=N)N)cc1 [Tosyl--agmatine, 1-[p-toluene-sulfonylamido]-4-guanidino-butane, reference compound]
amount required to double (from 15 sec to 30 sec) the thrombin time ([1]; 1 ml of a solution containing 1.25 mg of fibrinogen and 1.25 NIH units of thrombin): 0.7 mg | Amount of agmatine derivative required to double the thrombin-time of fibrinogen [1]: 280 μ/reaction mixture | relative activity [1]: 1

Relative thrombin-time, alone [2, 6]: 1.1 | Relative thrombin-time, alone [2, 7]: 1.5 | Relative thrombin-time, alone [2, 8]: 2.0 | Relative thrombin-time, alone [3, 6]: 1.0 | Relative thrombin-time, alone [3, 7]: 2.0 | Relative thrombin-time, alone [3, 8]: 3.8
Molecule: Heparin
prothrombin activity of the blood ([4]; 5 mg/kg heparin subcutaneously): practically unaltered
